Data on 16 compounds can be found in PubChem BioAssay AID328 (DTP/NCI, 2004).

In this test the test system is BDF1 mice, P388 leukemia ip, median survival T/C. Description: NCI In Vivo Anticancer Drug Screen. Data for tumor model P388 Leukemia (intraperitoneal) in B6D2F1 (BDF1) mice. Particulars: endpoint: median survival time, higher = longer survival. The method in brief:
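Survival ratio, drug arm over vehicle arm, in mice with a transplanted tumour.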

The mark [1] stands for this setting: dose: 400.0 mg/kg/injection, schedule: Q01DX001 (ip), vehicle: Klucel (hydroxypropylcellulose) (HPC).
[2] abbreviates: dose: 50.0 mg/kg/injection, schedule: Q01DX009 (ip), vehicle: saline with Tween-80.
[3] abbreviates: dose: 100.0 mg/kg/injection, schedule: Q01DX009 (ip), vehicle: saline with Tween-80.
Setting [4] is: dose: 200.0 mg/kg/injection, schedule: Q01DX009 (ip), vehicle: saline with Tween-80.
Where [5] appears, read: dose: 400.0 mg/kg/injection, schedule: Q01DX009 (ip), vehicle: saline with Tween-80.
Where [6] appears, read: dose: 50.0 mg/kg/injection, schedule: Q01DX009 (ip), vehicle: saline.
Where [7] appears, read: dose: 100.0 mg/kg/injection, schedule: Q01DX009 (ip), vehicle: saline.

Molecules are shown by their SMILES. Values joined by “and” are separate entries in the source; they are usually repeats but may differ in a detail not shown here. Identical values can stand only once. Inconclusive results and toxic doses are left out.

`CCOC(CN=Cc1ccc(Cl)c(Cl)c1)OCC`: the T/C reads like this: (dose: 100.0 mg/kg/injection, schedule: Q01DX001 (ip), vehicle: Klucel (hydroxypropylcellulose) (HPC)) 100 % of control; (dose: 200.0 mg/kg/injection, schedule: Q01DX001 (ip), vehicle: Klucel (hydroxypropylcellulose) (HPC)) 100 % of control; under setting [1], 95 % of control.

For `COc1ccc(CC2C(=O)NC(C)C(=O)N(C)C3C(=O)N(C)C(Cc4ccc(O)c(c4)Oc4ccc(cc4)C3O)C(=O)NC(C)C(=O)NC(C)C(=O)N2C)cc1` (centres undefined) (tested in a mixture with another compound), the T/C is 179 % of control (dose: 0.5 mg/kg/injection, schedule: Q01DX009 (ip), vehicle: alcohol); 207 % of control (dose: 0.5 mg/kg/injection, schedule: Q01DX009 (ip), vehicle: carboxymethylcellulose (CMC)); 158 % of control (dose: 1.0 mg/kg/injection, schedule: Q01DX009 (ip), vehicle: alcohol); 182 % of control (dose: 1.0 mg/kg/injection, schedule: Q01DX009 (ip), vehicle: carboxymethylcellulose (CMC)); 208 % of control (dose: 2.0 mg/kg/injection, schedule: Q01DX009 (ip), vehicle: alcohol); 207 % of control (dose: 2.0 mg/kg/injection, schedule: Q01DX009 (ip), vehicle: carboxymethylcellulose (CMC)).

For the compound `NNc1cccc(Cl)n1`, under setting [2], the T/C was 103 % of control.

In the case of `NN(C(=O)c1ccccc1)c1ccccc1`, the T/C (dose: 12.5 mg/kg/injection, schedule: Q04DX003 (ip), vehicle: Klucel (hydroxypropylcellulose) (HPC)) was 100 % of control; the T/C (dose: 25.0 mg/kg/injection, schedule: Q01DX009 (ip), vehicle: Klucel (hydroxypropylcellulose) (HPC)) is 110 % of control; the T/C (dose: 25.0 mg/kg/injection, schedule: Q04DX003 (ip), vehicle: Klucel (hydroxypropylcellulose) (HPC)) was 100 % of control; the T/C (dose: 50.0 mg/kg/injection, schedule: Q01DX009 (ip), vehicle: Klucel (hydroxypropylcellulose) (HPC)) was 100 % of control; the T/C (dose: 50.0 mg/kg/injection, schedule: Q04DX003 (ip), vehicle: Klucel (hydroxypropylcellulose) (HPC)) is 104 % of control; the T/C (dose: 75.0 mg/kg/injection, schedule: Q04DX003 (ip), vehicle: Klucel (hydroxypropylcellulose) (HPC)) was 104 % of control. Moreover, the T/C was 104 % of control (dose: 115.0 mg/kg/injection, schedule: Q04DX003 (ip), vehicle: Klucel (hydroxypropylcellulose) (HPC)); 109 % of control (dose: 170.0 mg/kg/injection, schedule: Q04DX003 (ip), vehicle: Klucel (hydroxypropylcellulose) (HPC)); 105 % of control (dose: 255.0 mg/kg/injection, schedule: Q04DX003 (ip), vehicle: Klucel (hydroxypropylcellulose) (HPC)); 110 % of control (dose: 385.0 mg/kg/injection, schedule: Q04DX003 (ip), vehicle: Klucel (hydroxypropylcellulose) (HPC)).

As to `Cc1cccc(NNC(=S)Nc2ccccc2)c1`, the T/C by setting is: under setting [3], 104 % of control; under setting [4], 95 % of control; under setting [5], 104 % of control.

With `CC(C(Cl)c1ccccc1)S(=O)c1ccccc1` (centres undefined), the T/C was 108 % of control under setting [2], 103 % of control under setting [3] and 105 % of control under setting [4].

Regarding `O=c1[nH]c2ccc(Br)cc2c(=O)o1`, the T/C runs as follows: (dose: 25.0 mg/kg/injection, schedule: Q01DX001 (ip), vehicle: Klucel (hydroxypropylcellulose) (HPC)) 104 % of control; (dose: 35.0 mg/kg/injection, schedule: Q01DX001 (ip), vehicle: Klucel (hydroxypropylcellulose) (HPC)) 109 % of control; (dose: 50.0 mg/kg/injection, schedule: Q01DX001 (ip), vehicle: Klucel (hydroxypropylcellulose) (HPC)) 104 % of control; (dose: 75.0 mg/kg/injection, schedule: Q01DX001 (ip), vehicle: Klucel (hydroxypropylcellulose) (HPC)) 95 % of control; under setting [3], 150 % of control; (dose: 250.0 mg/kg/injection, schedule: Q01DX001 (ip), vehicle: Klucel (hydroxypropylcellulose) (HPC)) 92 % of control. For the same compound, the T/C under setting [1] was 88 % of control.

Consider `NC1CCC1N` (centres undefined), for which the T/C runs as follows: (dose: 50.0 mg/kg/injection, schedule: Q01DX001 (ip), vehicle: saline) 110 % of control; (dose: 100.0 mg/kg/injection, schedule: Q01DX001 (ip), vehicle: saline) 105 % of control; (dose: 200.0 mg/kg/injection, schedule: Q01DX001 (ip), vehicle: saline) 105 % of control.

On to `Nn1nc2ccccc2n1`, for which the T/C was 100 % of control (dose: 100.0 mg/kg/injection, schedule: Q04DX003 (ip), vehicle: other); 100 % of control (dose: 200.0 mg/kg/injection, schedule: Q04DX003 (ip), vehicle: other); 100 % of control (dose: 400.0 mg/kg/injection, schedule: Q04DX003 (ip), vehicle: other).

Regarding `Clc1ccc(C[P+](c2ccccc2)(c2ccccc2)c2ccccc2)cc1Cl`, the T/C by setting is: (dose: 0.45 mg/kg/injection, schedule: Q01DX009 (ip), vehicle: saline) 104 % of control; (dose: 0.9 mg/kg/injection, schedule: Q01DX009 (ip), vehicle: saline) 100 % of control; (dose: 1.35 mg/kg/injection, schedule: Q01DX001 (ip), vehicle: saline) 100 % of control; (dose: 1.8 mg/kg/injection, schedule: Q01DX009 (ip), vehicle: saline) 91 % of control; (dose: 2.7 mg/kg/injection, schedule: Q01DX001 (ip), vehicle: saline) 95 % of control; (dose: 3.6 mg/kg/injection, schedule: Q01DX009 (ip), vehicle: saline) 108 % of control.

As to `CC1(C)c2ccccc2C(=O)C1Cc1ccccc1` (centres undefined), the T/C is, setting by setting: under setting [6], 93 % of control; (dose: 50.0 mg/kg/injection, schedule: Q04DX003 (ip), vehicle: saline) 109 % of control; under setting [7], 98 % of control; (dose: 100.0 mg/kg/injection, schedule: Q04DX003 (ip), vehicle: saline) 119 % of control; (dose: 200.0 mg/kg/injection, schedule: Q01DX009 (ip), vehicle: saline) 121 % of control; (dose: 200.0 mg/kg/injection, schedule: Q04DX003 (ip), vehicle: saline) 119 % of control. The T/C is, setting by setting: (dose: 400.0 mg/kg/injection, schedule: Q01DX009 (ip), vehicle: saline) 119 % of control; (dose: 400.0 mg/kg/injection, schedule: Q04DX003 (ip), vehicle: saline) 109 % of control.

With `COc1ccc(C(=O)CC(C#N)c2ccc(OC)c(OC)c2)cc1OC` (centres undefined), the T/C is, setting by setting: under setting [3], 100 % of control; under setting [4], 100 % of control; under setting [5], 95 % of control.

As to `CCCCC(/C=C1/CCCCC1=O)CC` (centres undefined), the T/C by setting is: (dose: 100.0 mg/kg/injection, schedule: Q01DX009 (ip), vehicle: Klucel (hydroxypropylcellulose) (HPC)) 95 % of control; (dose: 100.0 mg/kg/injection, schedule: Q04DX003 (ip), vehicle: Klucel (hydroxypropylcellulose) (HPC)) 104 % of control; (dose: 200.0 mg/kg/injection, schedule: Q01DX009 (ip), vehicle: Klucel (hydroxypropylcellulose) (HPC)) 87 % of control; (dose: 200.0 mg/kg/injection, schedule: Q04DX003 (ip), vehicle: Klucel (hydroxypropylcellulose) (HPC)) 104 % of control; (dose: 400.0 mg/kg/injection, schedule: Q01DX009 (ip), vehicle: Klucel (hydroxypropylcellulose) (HPC)) 91 % of control; (dose: 400.0 mg/kg/injection, schedule: Q04DX003 (ip), vehicle: Klucel (hydroxypropylcellulose) (HPC)) 113 % of control.

Regarding `Cc1ccc(S(=O)(=O)OCC2C3CCC2C3)cc1` (centres undefined), the T/C was 101 % of control under setting [2], 107 % of control under setting [3] and 107 % of control under setting [4].

On to `N=C(N)SCCN1C(=O)NC(c2ccccc2)(c2ccccc2)C1=O`, for which the T/C (dose: 6.25 mg/kg/injection, schedule: Q01DX009 (ip), vehicle: saline) is 96 % of control and 99 % of control; the T/C (dose: 12.5 mg/kg/injection, schedule: Q01DX009 (ip), vehicle: saline) was 90 % of control and 104 % of control; the T/C (dose: 25.0 mg/kg/injection, schedule: Q01DX009 (ip), vehicle: saline) is 93 % of control and 105 % of control; the T/C under setting [6] is 102 % of control and 105 % of control; the T/C under setting [7] is 106 % of control and 120 % of control.

Take `S=c1sc(-c2ccc(Cl)cc2)c[se]1`: the T/C (dose: 0.78 mg/kg/injection, schedule: Q01DX009 (ip), vehicle: saline with Tween-80) was 97 % of control; the T/C (dose: 1.56 mg/kg/injection, schedule: Q01DX009 (ip), vehicle: saline with Tween-80) is 109 % of control; the T/C (dose: 3.13 mg/kg/injection, schedule: Q01DX009 (ip), vehicle: saline with Tween-80) is 93 % of control and 100 % of control; the T/C (dose: 12.5 mg/kg/injection, schedule: Q01DX009 (ip), vehicle: saline with Tween-80) is 93 % of control.
